What was measured:
rats = system: rats; set-up: method as in printed; settings: preclinical, used for starting dose, ref not given; cited from earlier work
[1] = system: multidrug resistant P. yoelii; set-up: method as in printed; settings: multidrug resistant P. yoelii in mice; background, ref not given; cited from earlier work
[2] = system: chloroquine sensitive P. berghei; set-up: method as in printed; settings: chloroquine sensitive P. berghei in mice; background, ref not given; cited from earlier work
healthy human volunteers = assay: Single ascending dose study: biochemical parameters (liver function tests, serum electrolytes); type: in vivo; set-up: Total serum bilirubin / Serum SGOT / Serum SGPT: unit not given here
Text: The study was approved by the Institute's Ethics Committee. The single ascending dose study and the pharmacokinetic study are registered with Central Trial Registry of India (CTRI/2012/07/002812; CTRI/2012/07/002832). Normal healthy male volunteers in the age group of 18–45 years were invited to join the trial. A detailed informed consent process of the volunteers was undertaken and screening of the volunteers was done after obtaining informed consent. They were recruited through contacts and hospital employees were excluded. The health status of the volunteers was determined by taking medical history, physical examination, routine haematology (haemoglobin, total lymphocyte count, differential count, and platelet count), clinical biochemistry (serum glutamic oxaloacetic transaminase (SGOT), serum glutamic pyruvic transaminase (SGPT), serum bilirubin, serum creatinine, blood urea, serum electrolytes, random blood sugar, total protein, and serum lipid profile), and urine and stool analysis (routine examination and microscopy). The volunteers were asked to report to the study site after 12 hours of fasting for the blood tests. Chest X-ray and 12-lead ECG were also taken. The participants were also screened for human immunodeficiency virus (HIV) and hepatitis B. The volunteers after giving informed consent were screened. The screening process was done latest within 1 month of admission for dosing. The volunteers who fulfilled the inclusion/exclusion criteria were admitted in the CPU the night before drug administration. Standardized dinner was served at 9 pm the night prior to dosing. On day 0, baseline blood sample for biochemical and haematological examination and stool and urine samples for routine and microscopy were taken. They received the study drug, according to the randomization sequence, under supervision. The empty packaging was returned to the container. The volunteers received drug as per randomization. Breakfast was given half an hour after drug administration. Subsequently, standardized lunch and dinner were served to the volunteers. The subjects were attached to a cardiac monitor and vital HR, BP, ECG, oxygen saturation, and RR were recorded. Corrected QT interval using Fridericia's formula was calculated. Adverse events were assessed at specific time points (0.5, 1, 2, 4, 6, 8, 12, and 24 hrs after medication). Unscheduled monitoring was undertaken whenever it felt necessary. The volunteers were discharged after 24 hrs and they had to return at 48 hrs and on the 7th day for follow-up. At the end of the 7th day, they were said to have completed the study. Routine haematological and biochemical investigations were performed at 0 hr, 24 hrs after drug administration, and on day 7. The study was monitored by a Data Safety Monitoring Board.

C=C(c1ccc(OC(C)(C)COC(=O)CCC(=O)O)cc1)C1COC2(OO1)C1CC3CC(C1)CC2C3 (centres unmarked) [CDRI 97/78, Mono[2methyl2[3(1spiro[tricycle[3.3.1.13,7]decane2,3′-[1,2,4]trioxan] 6′-ylethenyl)phenoxy]propyl] ester]
Maximum tolerated dose (rats): 100 mg/kg | Antimalarial activity [1]: powerful antimalarial activity | Antimalarial activity [2]: powerful antimalarial activity | Serum Alkaline phosphatase (healthy human volunteers; 80 mg (n = 6), 24 hour): 102.5 ± 30.09 | Serum SGOT (healthy human volunteers; 80 mg (n = 6), 24 hour): 23.48 ± 2.88 | Serum SGPT (healthy human volunteers; 80 mg (n = 6), 24 hour): 26.2 ± 6.6 | Total serum bilirubin (healthy human volunteers; 80 mg (n = 6), 24 hour): 0.73 ± 0.24 | Serum Alkaline phosphatase (healthy human volunteers; 80 mg (n = 6), Baseline): 95.5 ± 26.65 | Serum SGOT (healthy human volunteers; 80 mg (n = 6), Baseline): 22.15 ± 6.3 | Serum SGPT (healthy human volunteers; 80 mg (n = 6), Baseline): 21.88 ± 10.0 | Total serum bilirubin (healthy human volunteers; 80 mg (n = 6), Baseline): 0.82 ± 0.24 | Serum Alkaline phosphatase (healthy human volunteers; 80 mg (n = 6), Day 7): 106.83 ± 37.12 | Serum SGOT (healthy human volunteers; 80 mg (n = 6), Day 7): 27.7 ± 6.1 | Serum SGPT (healthy human volunteers; 80 mg (n = 6), Day 7): 21.8 ± 3.7 | Total serum bilirubin (healthy human volunteers; 80 mg (n = 6), Day 7): 0.64 ± 0.23 | Serum Alkaline phosphatase (healthy human volunteers; 160 mg (n = 6), 24 hour): 212 ± 67 | Serum SGOT (healthy human volunteers; 160 mg (n = 6), 24 hour): 33.98 ± 9.69 | Serum SGPT (healthy human volunteers; 160 mg (n = 6), 24 hour): 39.43 ± 8.08 | Total serum bilirubin (healthy human volunteers; 160 mg (n = 6), 24 hour): 0.55 ± 0.07 | Serum Alkaline phosphatase (healthy human volunteers; 160 mg (n = 6), Baseline): 211.5 ± 68.65 | Serum SGOT (healthy human volunteers; 160 mg (n = 6), Baseline): 34.18 ± 7.89 | Serum SGPT (healthy human volunteers; 160 mg (n = 6), Baseline): 37.21 ± 4.16 | Total serum bilirubin (healthy human volunteers; 160 mg (n = 6), Baseline): 0.76 ± 0.39 | Serum Alkaline phosphatase (healthy human volunteers; 160 mg (n = 6), Day 7): 207.17 ± 61.03 | Serum SGOT (healthy human volunteers; 160 mg (n = 6), Day 7): 38.33 ± 8.91 | Serum SGPT (healthy human volunteers; 160 mg (n = 6), Day 7): 44.5 ± 11.64 | Total serum bilirubin (healthy human volunteers; 160 mg (n = 6), Day 7): 0.6 ± 0.06 | Serum Alkaline phosphatase (healthy human volunteers; 320 mg (n = 6), 24 hour): 222.5 ± 34.55 | Serum SGOT (healthy human volunteers; 320 mg (n = 6), 24 hour): 34.17 ± 7.76 | Serum SGPT (healthy human volunteers; 320 mg (n = 6), 24 hour): 37.33 ± 8.87 | Total serum bilirubin (healthy human volunteers; 320 mg (n = 6), 24 hour): 0.8 ± 0.4 | Serum Alkaline phosphatase (healthy human volunteers; 320 mg (n = 6), Baseline): 242 ± 45.24 | Serum SGOT (healthy human volunteers; 320 mg (n = 6), Baseline): 32.83 ± 5.15 | Serum SGPT (healthy human volunteers; 320 mg (n = 6), Baseline): 33.83 ± 9.09 | Total serum bilirubin (healthy human volunteers; 320 mg (n = 6), Baseline): 0.73 ± 0.52 | Serum Alkaline phosphatase (healthy human volunteers; 320 mg (n = 6), Day 7): 235.83 ± 32.49 | Serum SGOT (healthy human volunteers; 320 mg (n = 6), Day 7): 35 ± 8.53 | Serum SGPT (healthy human volunteers; 320 mg (n = 6), Day 7): 38.33 ± 13.84 | Total serum bilirubin (healthy human volunteers; 320 mg (n = 6), Day 7): 0.87 ± 0.59 | Serum Alkaline phosphatase (healthy human volunteers; 400 mg (n = 6), 24 hour): 251.67 ± 47.59 | Serum SGOT (healthy human volunteers; 400 mg (n = 6), 24 hour): 31.5 ± 4.5 | Serum SGPT (healthy human volunteers; 400 mg (n = 6), 24 hour): 35.17 ± 4.12 | Total serum bilirubin (healthy human volunteers; 400 mg (n = 6), 24 hour): 0.53 ± 0.05 | Serum Alkaline phosphatase (healthy human volunteers; 400 mg (n = 6), Baseline): 232.83 ± 42 | Serum SGOT (healthy human volunteers; 400 mg (n = 6), Baseline): 26.67 ± 6.62 | Serum SGPT (healthy human volunteers; 400 mg (n = 6), Baseline): 29 ± 5.44 | Total serum bilirubin (healthy human volunteers; 400 mg (n = 6), Baseline): 0.52 ± 0.04 | Serum Alkaline phosphatase (healthy human volunteers; 400 mg (n = 6), Day 7): 242.83 ± 34.82 | Serum SGOT (healthy human volunteers; 400 mg (n = 6), Day 7): 32.33 ± 8.87 | Serum SGPT (healthy human volunteers; 400 mg (n = 6), Day 7): 38 ± 12.95 | Total serum bilirubin (healthy human volunteers; 400 mg (n = 6), Day 7): 0.55 ± 0.08 | Serum Alkaline phosphatase (healthy human volunteers; 500 mg (n = 6), 24 hour): 313 ± 124.5 | Serum SGOT (healthy human volunteers; 500 mg (n = 6), 24 hour): 31.5 ± 6.02 | Serum SGPT (healthy human volunteers; 500 mg (n = 6), 24 hour): 34.83 ± 11.07 | Total serum bilirubin (healthy human volunteers; 500 mg (n = 6), 24 hour): 0.52 ± 0.04 | Serum Alkaline phosphatase (healthy human volunteers; 500 mg (n = 6), Baseline): 321.17 ± 151 | Serum SGOT (healthy human volunteers; 500 mg (n = 6), Baseline): 31.33 ± 8.76 | Serum SGPT (healthy human volunteers; 500 mg (n = 6), Baseline): 32.83 ± 11.5 | Total serum bilirubin (healthy human volunteers; 500 mg (n = 6), Baseline): 0.52 ± 0.04 | Serum Alkaline phosphatase (healthy human volunteers; 500 mg (n = 6), Day 7): 339.67 ± 184.25 | Serum SGOT (healthy human volunteers; 500 mg (n = 6), Day 7): 34 ± 6.00 | Serum SGPT (healthy human volunteers; 500 mg (n = 6), Day 7): 35.33 ± 10.56 | Total serum bilirubin (healthy human volunteers; 500 mg (n = 6), Day 7): 0.53 ± 0.05 | Serum Alkaline phosphatase (healthy human volunteers; 600 mg (n = 6), 24 hour): 275.83 ± 61.29 | Serum SGOT (healthy human volunteers; 600 mg (n = 6), 24 hour): 30.33 ± 6.74 | Serum SGPT (healthy human volunteers; 600 mg (n = 6), 24 hour): 30.5 ± 8.46 | Total serum bilirubin (healthy human volunteers; 600 mg (n = 6), 24 hour): 0.8 ± 0.59 | Serum Alkaline phosphatase (healthy human volunteers; 600 mg (n = 6), Baseline): 272.5 ± 66.71 | Serum SGOT (healthy human volunteers; 600 mg (n = 6), Baseline): 31.17 ± 6.3 | Serum SGPT (healthy human volunteers; 600 mg (n = 6), Baseline): 30 ± 7.16 | Total serum bilirubin (healthy human volunteers; 600 mg (n = 6), Baseline): 0.8 ± 0.54 | Serum Alkaline phosphatase (healthy human volunteers; 600 mg (n = 6), Day 7): 274 ± 75.17 | Serum SGOT (healthy human volunteers; 600 mg (n = 6), Day 7): 31.33 ± 5.78 | Serum SGPT (healthy human volunteers; 600 mg (n = 6), Day 7): 33.17 ± 10.53 | Total serum bilirubin (healthy human volunteers; 600 mg (n = 6), Day 7): 0.82 ± 0.59 | Serum Alkaline phosphatase (healthy human volunteers; 700 mg (n = 2), 24 hour): 254 ± 56.57 | Serum SGOT (healthy human volunteers; 700 mg (n = 2), 24 hour): 40 ± 4.24 | Serum SGPT (healthy human volunteers; 700 mg (n = 2), 24 hour): 46.5 ± 4.95 | Total serum bilirubin (healthy human volunteers; 700 mg (n = 2), 24 hour): 0.6 ± 0.14 | Serum Alkaline phosphatase (healthy human volunteers; 700 mg (n = 2), Baseline): 261.5 ± 50.2 | Serum SGOT (healthy human volunteers; 700 mg (n = 2), Baseline): 35.5 ± 0.71 | Serum SGPT (healthy human volunteers; 700 mg (n = 2), Baseline): 46 ± 5.66 | Total serum bilirubin (healthy human volunteers; 700 mg (n = 2), Baseline): 0.6 ± 0.14 | Serum Alkaline phosphatase (healthy human volunteers; 700 mg (n = 2), Day 7): 260.5 ± 44.55 | Serum SGOT (healthy human volunteers; 700 mg (n = 2), Day 7): 34.5 ± 0.71 | Serum SGPT (healthy human volunteers; 700 mg (n = 2), Day 7): 40 ± 11.31 | Total serum bilirubin (healthy human volunteers; 700 mg (n = 2), Day 7): 0.55 ± 0.07 | Serum sodium and serum potassium values vs normal physiological ranges (healthy human volunteers; all time points, all groups): None of the volunteers had values outside the normal physiological ranges | Serum bilirubin, SGOT and SGPT, intergroup comparisons (healthy human volunteers; any time point of measurement, 80-700 mg and placebo): no significant difference

Source: PMC3985299, “Single Ascending Dose Safety and Pharmacokinetics of CDRI-97/78: First-in-Human Study of a Novel Antimalarial Drug” (Malaria Research and Treatment, 2014)
